The results in this text go back to the supplement of paper PMC6045584.

± gives the standard deviation of the averaged measurements.

Compound in test [1]: CN(Cc1cnc2nc(N)nc(N)c2n1)c1ccc(C(=O)N[C@@H](CCC(=O)O)C(=O)O)cc1 [METHOTREXATE]
The test is described as follows: surviving fraction relative to DMSO-only wells; higher = less growth inhibition. To be noted: exposure time: 5 days. Put shortly: (§1)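 Viability values are CellTiter-Glo luminescence readings, given as surviving fraction against the median of DMSO-only wells. The readings were taken after 10 minutes at room temperature, following five days of continuous exposure to inhibitors at 0.5, 1, 5, 10, 50, 100, 500 and 1000 nM that began 24 hours after log-phase tumour cell lines were seeded at 250–500 cells per well in 384-well plates. Every line was screened three times and kept only if replicate Pearson r >0.7 and median Z' >0.3.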

Compound in test [2]: COc1cc([C@@H]2c3cc4c(cc3[C@@H](O[C@@H]3O[C@@H]5CO[C@@H](C)O[C@H]5[C@H](O)[C@H]3O)[C@H]3COC(=O)[C@H]23)OCO4)cc(OC)c1O [ETOPOSIDE]
The description is as above. To be noted: exposure time: 5 days. Put shortly:
as §1

On to C33A CERVIX, for which the surviving fraction in test [1] (0.5 nM) is 1.01 ± 0.15; in test [1] (1 nM) it was 0.936 ± 0.025; in test [1] (5 nM), 0.987 ± 0.11; in test [1] (10 nM), 0.519 ± 0.048; in test [1] (50 nM), 0.592 ± 0.075; in test [1] (100 nM), 0.585 ± 0.05. In addition, the surviving fraction in test [1] (500 nM) was found to be 0.566 ± 0.034; in test [1] (1000 nM) it was 0.557 ± 0.034; in test [2] (0.5 nM) it was 0.794 ± 0.11; in test [2] (1 nM) it was 0.967 ± 0.064; in test [2] (5 nM), 0.918 ± 0.016; in test [2] (10 nM) it was 1.05 ± 0.071. Further, the surviving fraction came to 0.923 ± 0.045 in test [2] (50 nM), 0.726 ± 0.024 in test [2] (100 nM), 0.251 ± 0.027 in test [2] (500 nM) and 0.155 ± 0.01 in test [2] (1000 nM).
Take CAL72 BONE: the surviving fraction amounted to 1.04 ± 0.15 in test [1] (0.5 nM); 1.02 ± 0.13 in test [1] (1 nM); 1.03 ± 0.13 in test [1] (5 nM); 1.04 ± 0.11 in test [1] (10 nM); 0.641 ± 0.051 in test [1] (50 nM); 0.323 ± 0.061 in test [1] (100 nM). In addition, the surviving fraction in test [1] (500 nM) is 0.301 ± 0.054; in test [1] (1000 nM), 0.303 ± 0.068; in test [2] (0.5 nM), 1.05 ± 0.026; in test [2] (1 nM), 1.05 ± 0.037; in test [2] (5 nM) it was 1.06 ± 0.048; in test [2] (10 nM), 1.05 ± 0.05. The surviving fraction was 1.07 ± 0.051 in test [2] (50 nM), 1.07 ± 0.039 in test [2] (100 nM), 0.684 ± 0.029 in test [2] (500 nM) and 0.358 ± 0.03 in test [2] (1000 nM).
Consider G292 BONE, for which the surviving fraction was found to be 1.01 ± 0.048 in test [1] (0.5 nM); 1.07 ± 0.032 in test [1] (1 nM); 1.04 ± 0.069 in test [1] (5 nM); 1.06 ± 0.042 in test [1] (10 nM); 1.02 ± 0.042 in test [1] (50 nM); 1.04 ± 0.029 in test [1] (100 nM). Further, the surviving fraction stood at 1.017 ± 0.0058 in test [1] (500 nM); 1.01 ± 0.024 in test [1] (1000 nM); 0.964 ± 0.035 in test [2] (0.5 nM); 0.976 ± 0.041 in test [2] (1 nM); 1 ± 0.087 in test [2] (5 nM); 0.978 ± 0.06 in test [2] (10 nM). Besides, the surviving fraction came out at 0.942 ± 0.02 in test [2] (50 nM), 0.796 ± 0.014 in test [2] (100 nM), 0.437 ± 0.019 in test [2] (500 nM) and 0.352 ± 0.012 in test [2] (1000 nM).
Turning to HCC1395 BREAST, the surviving fraction is 1.18 ± 0.047 in test [1] (0.5 nM); 1.08 ± 0.073 in test [1] (1 nM); 1.17 ± 0.035 in test [1] (5 nM); 1.17 ± 0.1 in test [1] (10 nM); 1.12 ± 0.058 in test [1] (50 nM); 1.26 ± 0.026 in test [1] (100 nM). The surviving fraction is 1.03 ± 0.16 in test [1] (500 nM); 1.09 ± 0.062 in test [1] (1000 nM); 0.983 ± 0.081 in test [2] (0.5 nM); 0.994 ± 0.1 in test [2] (1 nM); 1.02 ± 0.12 in test [2] (5 nM); 1 ± 0.12 in test [2] (10 nM). In addition, the surviving fraction in test [2] (50 nM) was found to be 1.06 ± 0.14; in test [2] (100 nM), 1.04 ± 0.056; in test [2] (500 nM) it was 0.937 ± 0.12; in test [2] (1000 nM) it was 0.926 ± 0.13.
As for HUO3N1 BONE, the surviving fraction amounted to 1.05 ± 0.032 in test [1] (0.5 nM); 1.04 ± 0.059 in test [1] (1 nM); 1.084 ± 0.008 in test [1] (5 nM); 1.08 ± 0.016 in test [1] (10 nM); 0.991 ± 0.041 in test [1] (50 nM); 0.731 ± 0.029 in test [1] (100 nM). Also, the surviving fraction in test [1] (500 nM) turned out to be 0.51 ± 0.035; in test [1] (1000 nM), 0.51 ± 0.046; in test [2] (0.5 nM), 0.956 ± 0.017; in test [2] (1 nM), 0.936 ± 0.05; in test [2] (5 nM), 0.982 ± 0.06; in test [2] (10 nM), 1.01 ± 0.042. For the same test system, the surviving fraction is 1.01 ± 0.019 in test [2] (50 nM), 0.96 ± 0.057 in test [2] (100 nM), 0.519 ± 0.01 in test [2] (500 nM) and 0.376 ± 0.012 in test [2] (1000 nM).
Take LNCAP PROSTATE: the surviving fraction in test [1] (0.5 nM) turned out to be 0.965 ± 0.021; in test [1] (1 nM) it was 0.957 ± 0.042; in test [1] (5 nM), 0.961 ± 0.059; in test [1] (10 nM), 0.851 ± 0.061; in test [1] (50 nM), 0.575 ± 0.011; in test [1] (100 nM) it was 0.5 ± 0.024. Besides, the surviving fraction in test [1] (500 nM) was found to be 0.428 ± 0.018; in test [1] (1000 nM) it was 0.422 ± 0.032; in test [2] (0.5 nM), 0.86 ± 0.18; in test [2] (1 nM) it was 0.951 ± 0.078; in test [2] (5 nM), 0.868 ± 0.13; in test [2] (10 nM) it was 0.94 ± 0.058. Also, the surviving fraction in test [2] (50 nM) is 0.9023 ± 0.0057; in test [2] (100 nM) it was 0.77 ± 0.051; in test [2] (500 nM), 0.438 ± 0.046; in test [2] (1000 nM) it was 0.301 ± 0.025.
For the test system SCC003 HEADNECK, the surviving fraction was found to be 1.09 ± 0.11 in test [1] (0.5 nM); 1.1 ± 0.033 in test [1] (1 nM); 1.16 ± 0.03 in test [1] (5 nM); 0.87 ± 0.052 in test [1] (10 nM); 0.594 ± 0.021 in test [1] (50 nM); 0.541 ± 0.026 in test [1] (100 nM). Also, the surviving fraction was determined as 0.549 ± 0.042 in test [1] (500 nM); 0.509 ± 0.037 in test [1] (1000 nM); 1.04 ± 0.092 in test [2] (0.5 nM); 1.05 ± 0.13 in test [2] (1 nM); 1.11 ± 0.069 in test [2] (5 nM); 1.07 ± 0.051 in test [2] (10 nM). Besides, the surviving fraction in test [2] (50 nM) was 1.1 ± 0.063; in test [2] (100 nM), 1.08 ± 0.068; in test [2] (500 nM), 0.849 ± 0.15; in test [2] (1000 nM), 0.604 ± 0.041.
